# Results from PMC8909834, “An Orally Bioavailable and Highly Efficacious Inhibitor of CDK9/FLT3 for the Treatment of Acute Myeloid Leukemia” (Cancers, 2022).
# Key:
# Experiment in all cases: Kinase Hotspot radiolabel assay
# Assay type in all cases: biochemical
# Settings in all cases: read-out: % Residual Activity
# [1] = target: T1, RSK2 (Homo sapiens, UniProt P51812)
# T1 construct: purchased Reaction Biology Corporation (Kinase HotSpot)
# Method in brief: (§1)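 1 µM cpd; 369-kinase radiolabel Hotspot panel; Ki run for hits >90% inhibition.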
# [2] = target: T2, BTK (Homo sapiens, UniProt Q06187)
# T2 construct: purchased Reaction Biology Corporation (Kinase HotSpot)
# Method in brief: as §1
# [3] = target: T3, DYRK3 (Homo sapiens, UniProt O43781)
# T3 construct: purchased Reaction Biology Corporation (Kinase HotSpot)
# Method in brief: as §1
# [4] = target: T4, KSR1 (Homo sapiens, UniProt Q8IVT5)
# T4 construct: purchased Reaction Biology Corporation (Kinase HotSpot)
# Method in brief: as §1
# [5] = target: T5, c-MET (Homo sapiens, UniProt P08581)
# T5 construct: purchased Reaction Biology Corporation (Kinase HotSpot)
# Method in brief: as §1
# [6] = target: T6, MELK (Homo sapiens, UniProt Q14680)
# T6 construct: purchased Reaction Biology Corporation (Kinase HotSpot)
# Method in brief: as §1
# [7] = target: T7, VRK1 (Homo sapiens, UniProt Q99986)
# T7 construct: purchased Reaction Biology Corporation (Kinase HotSpot)
# Method in brief: as §1
# [8] = target: T8, NIM1 (Homo sapiens, UniProt Q8IY84)
# T8 construct: purchased Reaction Biology Corporation (Kinase HotSpot)
# Method in brief: as §1
# [9] = target: T9, PBK/TOPK (Homo sapiens, UniProt Q96KB5)
# T9 construct: purchased Reaction Biology Corporation (Kinase HotSpot)
# Method in brief: as §1
# [10] = target: T10, DYRK4 (Homo sapiens, UniProt Q9NR20)
# T10 construct: purchased Reaction Biology Corporation (Kinase HotSpot)
# Method in brief: as §1
# [11] = target: T11, MRCKa/CDC42BPA (Homo sapiens, UniProt Q5VT25)
# T11 construct: purchased Reaction Biology Corporation (Kinase HotSpot)
# Method in brief: as §1
# [12] = target: T12, STK38/NDR1 (Homo sapiens, UniProt Q15208)
# T12 construct: purchased Reaction Biology Corporation (Kinase HotSpot)
# Method in brief: as §1
# [13] = target: T13, MSSK1/STK23 (Homo sapiens, UniProt Q9UPE1)
# T13 construct: purchased Reaction Biology Corporation (Kinase HotSpot)
# Method in brief: as §1
# [14] = target: T14, CDK1/cyclin B (Homo sapiens, UniProt P06493)
# T14 construct: purchased Reaction Biology Corporation (Kinase HotSpot)
# Method in brief: as §1
# [15] = target: T15, CK1g3 (Homo sapiens, UniProt Q9Y6M4)
# T15 construct: purchased Reaction Biology Corporation (Kinase HotSpot)
# Method in brief: as §1
# [16] = target: T16, PHKg2 (Homo sapiens, UniProt P15735)
# T16 construct: purchased Reaction Biology Corporation (Kinase HotSpot)
# Method in brief: as §1
# [17] = target: T17, LOK/STK10 (Homo sapiens, UniProt O94804)
# T17 construct: purchased Reaction Biology Corporation (Kinase HotSpot)
# Method in brief: as §1
# [18] = target: T18, CAMK1d (Homo sapiens, UniProt Q8IU85)
# T18 construct: purchased Reaction Biology Corporation (Kinase HotSpot)
# Method in brief: as §1
# [19] = target: T19, CAMK1a (Homo sapiens, UniProt Q14012)
# T19 construct: purchased Reaction Biology Corporation (Kinase HotSpot)
# Method in brief: as §1
# [20] = target: T20, EPHA4 (Homo sapiens, UniProt P54764)
# T20 construct: purchased Reaction Biology Corporation (Kinase HotSpot)
# Method in brief: as §1
# [21] = target: T21, MLK2/MAP3K10 (Homo sapiens, UniProt Q02779)
# T21 construct: purchased Reaction Biology Corporation (Kinase HotSpot)
# Method in brief: as §1
# [22] = target: T22, GRK7 (Homo sapiens, UniProt Q8WTQ7)
# T22 construct: purchased Reaction Biology Corporation (Kinase HotSpot)
# Method in brief: as §1
# [23] = target: T23, TAOK2/TAO1 (Homo sapiens, UniProt Q9UL54)
# T23 construct: purchased Reaction Biology Corporation (Kinase HotSpot)
# Method in brief: as §1
# [24] = target: T24, FLT4/VEGFR3 (Homo sapiens, UniProt P35916)
# T24 construct: purchased Reaction Biology Corporation (Kinase HotSpot)
# Method in brief: as §1
# [25] = target: T25, DYRK1B (Homo sapiens, UniProt Q9Y463)
# T25 construct: purchased Reaction Biology Corporation (Kinase HotSpot)
# Method in brief: as §1
# [26] = target: T26, MINK/MINK1 (Homo sapiens, UniProt Q8N4C8)
# T26 construct: purchased Reaction Biology Corporation (Kinase HotSpot)
# Method in brief: as §1
# [27] = target: T27, MLK1/MAP3K9 (Homo sapiens, UniProt P80192)
# T27 construct: purchased Reaction Biology Corporation (Kinase HotSpot)
# Method in brief: as §1
# [28] = target: T28, GRK6 (Homo sapiens, UniProt P43250)
# T28 construct: purchased Reaction Biology Corporation (Kinase HotSpot)
# Method in brief: as §1
# [29] = target: T29, CDK17/cyclin Y (PCTK2) (Homo sapiens, UniProt Q00537)
# T29 construct: purchased Reaction Biology Corporation (Kinase HotSpot)
# Method in brief: as §1
# [30] = target: T30, MNK1 (Homo sapiens, UniProt Q9BUB5)
# T30 construct: purchased Reaction Biology Corporation (Kinase HotSpot)
# Method in brief: as §1
# T24 sequence (P35916 25-1363): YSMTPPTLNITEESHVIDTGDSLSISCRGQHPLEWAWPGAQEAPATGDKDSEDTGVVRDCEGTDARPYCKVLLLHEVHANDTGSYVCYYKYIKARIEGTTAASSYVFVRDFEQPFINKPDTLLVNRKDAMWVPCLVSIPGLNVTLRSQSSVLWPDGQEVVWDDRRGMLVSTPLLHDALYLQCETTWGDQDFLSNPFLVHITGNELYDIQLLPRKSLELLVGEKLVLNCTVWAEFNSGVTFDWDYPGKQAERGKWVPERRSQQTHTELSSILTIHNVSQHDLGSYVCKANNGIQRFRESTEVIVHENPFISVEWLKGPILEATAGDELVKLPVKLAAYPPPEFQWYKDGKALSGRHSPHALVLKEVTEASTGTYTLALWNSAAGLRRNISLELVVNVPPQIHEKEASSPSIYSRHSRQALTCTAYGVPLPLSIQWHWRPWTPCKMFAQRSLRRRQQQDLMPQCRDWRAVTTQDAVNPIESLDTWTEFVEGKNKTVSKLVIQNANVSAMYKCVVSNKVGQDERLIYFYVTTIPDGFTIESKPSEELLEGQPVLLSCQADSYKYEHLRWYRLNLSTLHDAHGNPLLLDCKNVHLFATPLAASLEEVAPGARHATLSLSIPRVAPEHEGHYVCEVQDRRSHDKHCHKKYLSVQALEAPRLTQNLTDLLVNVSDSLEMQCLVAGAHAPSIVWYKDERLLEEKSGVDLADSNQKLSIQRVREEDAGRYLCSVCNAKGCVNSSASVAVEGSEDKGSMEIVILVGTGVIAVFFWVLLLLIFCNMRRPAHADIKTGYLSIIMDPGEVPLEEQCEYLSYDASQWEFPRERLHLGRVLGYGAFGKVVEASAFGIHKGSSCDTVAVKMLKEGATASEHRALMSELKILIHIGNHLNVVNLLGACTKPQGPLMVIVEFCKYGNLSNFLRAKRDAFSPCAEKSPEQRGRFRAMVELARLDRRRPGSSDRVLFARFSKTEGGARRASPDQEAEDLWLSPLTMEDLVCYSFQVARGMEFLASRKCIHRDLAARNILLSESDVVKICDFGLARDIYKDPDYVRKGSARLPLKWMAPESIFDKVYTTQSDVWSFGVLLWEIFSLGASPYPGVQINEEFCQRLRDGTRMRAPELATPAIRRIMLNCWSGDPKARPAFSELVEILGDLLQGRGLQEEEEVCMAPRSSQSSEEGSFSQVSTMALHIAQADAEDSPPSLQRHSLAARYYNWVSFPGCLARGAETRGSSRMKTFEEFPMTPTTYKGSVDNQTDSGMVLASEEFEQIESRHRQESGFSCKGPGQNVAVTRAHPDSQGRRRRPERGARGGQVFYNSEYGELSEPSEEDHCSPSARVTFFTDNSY
# T6 sequence (Q14680 whole entry): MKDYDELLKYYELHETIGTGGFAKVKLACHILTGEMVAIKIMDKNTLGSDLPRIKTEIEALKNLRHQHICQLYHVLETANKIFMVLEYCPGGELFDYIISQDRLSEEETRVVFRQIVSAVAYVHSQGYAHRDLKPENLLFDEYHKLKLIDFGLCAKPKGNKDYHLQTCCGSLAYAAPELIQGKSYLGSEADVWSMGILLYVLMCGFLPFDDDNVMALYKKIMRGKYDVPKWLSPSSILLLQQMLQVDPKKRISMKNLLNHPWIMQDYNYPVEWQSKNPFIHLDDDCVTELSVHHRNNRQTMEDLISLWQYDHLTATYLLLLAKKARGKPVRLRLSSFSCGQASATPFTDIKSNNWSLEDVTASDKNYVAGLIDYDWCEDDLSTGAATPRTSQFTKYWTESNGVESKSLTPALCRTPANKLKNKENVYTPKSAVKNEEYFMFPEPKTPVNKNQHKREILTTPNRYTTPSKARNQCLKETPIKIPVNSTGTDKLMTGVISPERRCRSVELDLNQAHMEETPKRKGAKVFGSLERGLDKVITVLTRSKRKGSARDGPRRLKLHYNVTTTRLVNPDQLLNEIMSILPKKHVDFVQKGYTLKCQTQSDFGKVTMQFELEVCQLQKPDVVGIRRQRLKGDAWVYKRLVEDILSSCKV
# T10 sequence (Q9NR20 whole entry): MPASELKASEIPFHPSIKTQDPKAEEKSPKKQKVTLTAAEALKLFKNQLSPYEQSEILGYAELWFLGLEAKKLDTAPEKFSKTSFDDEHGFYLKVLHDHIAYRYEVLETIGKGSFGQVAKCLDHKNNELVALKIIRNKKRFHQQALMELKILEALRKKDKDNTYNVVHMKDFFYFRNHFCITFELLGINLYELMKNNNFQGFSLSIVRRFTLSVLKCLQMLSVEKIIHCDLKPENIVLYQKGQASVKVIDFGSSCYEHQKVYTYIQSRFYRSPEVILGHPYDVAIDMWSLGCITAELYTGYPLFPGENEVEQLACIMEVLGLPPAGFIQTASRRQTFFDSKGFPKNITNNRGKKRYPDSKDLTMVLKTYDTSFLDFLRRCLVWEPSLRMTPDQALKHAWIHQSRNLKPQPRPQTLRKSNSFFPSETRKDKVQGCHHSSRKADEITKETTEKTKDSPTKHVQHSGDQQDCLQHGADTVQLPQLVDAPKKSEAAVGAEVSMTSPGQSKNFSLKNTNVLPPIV
# T29 sequence (Q00537 whole entry): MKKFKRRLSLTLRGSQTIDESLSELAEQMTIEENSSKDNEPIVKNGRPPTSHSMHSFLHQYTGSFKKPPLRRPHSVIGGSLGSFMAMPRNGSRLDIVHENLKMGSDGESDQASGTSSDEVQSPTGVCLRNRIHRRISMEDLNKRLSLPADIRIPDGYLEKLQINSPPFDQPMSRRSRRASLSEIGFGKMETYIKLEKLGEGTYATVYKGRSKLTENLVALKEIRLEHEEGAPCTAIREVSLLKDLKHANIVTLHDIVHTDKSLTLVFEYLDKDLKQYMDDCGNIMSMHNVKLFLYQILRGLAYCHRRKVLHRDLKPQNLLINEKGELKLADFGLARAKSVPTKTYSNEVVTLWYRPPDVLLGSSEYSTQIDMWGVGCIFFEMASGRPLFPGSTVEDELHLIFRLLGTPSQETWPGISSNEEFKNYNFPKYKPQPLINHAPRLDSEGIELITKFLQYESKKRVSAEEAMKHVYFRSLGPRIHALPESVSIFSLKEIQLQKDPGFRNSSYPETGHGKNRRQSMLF
# T29 sequence (Q8ND76 whole entry partner): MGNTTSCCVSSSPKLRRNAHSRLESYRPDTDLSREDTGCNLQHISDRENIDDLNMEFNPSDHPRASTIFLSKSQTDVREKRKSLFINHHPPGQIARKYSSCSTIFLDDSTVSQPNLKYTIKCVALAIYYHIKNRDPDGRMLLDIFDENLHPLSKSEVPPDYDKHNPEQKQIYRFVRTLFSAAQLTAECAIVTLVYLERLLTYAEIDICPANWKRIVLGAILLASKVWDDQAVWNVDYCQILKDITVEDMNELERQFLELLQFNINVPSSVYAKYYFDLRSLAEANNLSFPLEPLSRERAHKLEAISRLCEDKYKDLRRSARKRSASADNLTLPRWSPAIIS
# T30 sequence (Q9BUB5 whole entry): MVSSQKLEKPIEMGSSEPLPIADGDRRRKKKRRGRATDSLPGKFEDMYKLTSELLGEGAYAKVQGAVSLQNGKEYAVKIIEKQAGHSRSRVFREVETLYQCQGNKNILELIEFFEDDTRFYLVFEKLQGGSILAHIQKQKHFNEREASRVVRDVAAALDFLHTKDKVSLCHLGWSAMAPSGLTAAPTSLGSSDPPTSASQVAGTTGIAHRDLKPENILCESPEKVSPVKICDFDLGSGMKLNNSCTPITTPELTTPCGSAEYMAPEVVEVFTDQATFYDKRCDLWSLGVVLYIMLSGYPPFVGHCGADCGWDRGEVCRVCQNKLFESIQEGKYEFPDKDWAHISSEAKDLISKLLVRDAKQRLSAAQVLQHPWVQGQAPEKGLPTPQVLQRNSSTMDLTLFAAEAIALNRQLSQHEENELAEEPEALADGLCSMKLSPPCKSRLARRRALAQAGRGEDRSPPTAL
# T19 sequence (Q14012 whole entry): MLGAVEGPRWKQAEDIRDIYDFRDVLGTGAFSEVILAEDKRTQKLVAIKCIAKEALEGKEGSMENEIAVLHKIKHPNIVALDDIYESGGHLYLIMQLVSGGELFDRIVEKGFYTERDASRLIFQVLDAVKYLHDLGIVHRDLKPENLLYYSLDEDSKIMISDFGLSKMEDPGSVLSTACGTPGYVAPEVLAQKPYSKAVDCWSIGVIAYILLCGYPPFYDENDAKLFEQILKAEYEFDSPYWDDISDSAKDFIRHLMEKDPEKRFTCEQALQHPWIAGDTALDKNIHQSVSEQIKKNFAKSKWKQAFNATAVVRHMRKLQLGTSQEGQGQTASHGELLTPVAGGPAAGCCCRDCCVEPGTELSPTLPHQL
# T3 sequence (O43781 whole entry): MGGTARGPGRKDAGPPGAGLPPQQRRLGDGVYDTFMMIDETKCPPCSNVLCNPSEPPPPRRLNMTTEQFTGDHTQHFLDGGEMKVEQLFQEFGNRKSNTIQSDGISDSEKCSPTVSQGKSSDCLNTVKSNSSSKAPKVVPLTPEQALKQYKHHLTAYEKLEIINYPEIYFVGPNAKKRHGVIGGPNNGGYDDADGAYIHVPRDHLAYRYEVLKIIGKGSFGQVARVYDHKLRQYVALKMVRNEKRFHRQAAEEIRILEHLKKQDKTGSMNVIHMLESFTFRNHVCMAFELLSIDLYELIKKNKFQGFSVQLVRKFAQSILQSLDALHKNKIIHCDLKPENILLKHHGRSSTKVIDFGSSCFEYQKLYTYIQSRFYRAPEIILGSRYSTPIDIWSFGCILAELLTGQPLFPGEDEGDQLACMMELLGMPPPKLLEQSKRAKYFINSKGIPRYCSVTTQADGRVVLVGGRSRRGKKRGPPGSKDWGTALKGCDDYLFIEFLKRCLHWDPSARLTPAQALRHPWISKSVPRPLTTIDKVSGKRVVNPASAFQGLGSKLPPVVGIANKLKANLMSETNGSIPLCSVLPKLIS
smiles,measurement,setting,value
Cc1cnc(N[C@H]2CC[C@H](N)CC2)nc1-c1cnc2ccc(-c3ccccc3)cn12 [CDDD11-8],remaining activity at 1 µM,[1],71%
same,remaining activity at 1 µM,[2],87%
same,remaining activity at 1 µM,[3],23.2%
same,remaining activity at 1 µM,[4],92.3%
same,remaining activity at 1 µM,[5],103%
same,remaining activity at 1 µM,[6],66.9%
same,remaining activity at 1 µM,[7],42.4%
same,remaining activity at 1 µM,[8],89.9%
same,remaining activity at 1 µM,[9],102%
same,remaining activity at 1 µM,[10],93.6%
same,remaining activity at 1 µM,[11],97.7%
same,remaining activity at 1 µM,[12],93.3%
same,remaining activity at 1 µM,[13],90.8%
same,remaining activity at 1 µM,[14],69.5%
same,remaining activity at 1 µM,[15],63.2%
same,remaining activity at 1 µM,[16],93.9%
same,remaining activity at 1 µM,[17],55.8%
same,remaining activity at 1 µM,[18],87.1%
same,remaining activity at 1 µM,[19],80.7%
same,remaining activity at 1 µM,[20],101%
same,remaining activity at 1 µM,[21],76.5%
same,remaining activity at 1 µM,[22],70.7%
same,remaining activity at 1 µM,[23],45%
same,remaining activity at 1 µM,[24],23.3%
same,remaining activity at 1 µM,[25],22.2%
same,remaining activity at 1 µM,[26],8.86%
same,remaining activity at 1 µM,[27],43%
same,remaining activity at 1 µM,[28],98.5%
same,remaining activity at 1 µM,[29],34.1%
same,remaining activity at 1 µM,[30],76.4%
